Consider two molecules from patent US20070134193A1, “Cosmetic and/or pharmaceutical preparations” (priority 2001, published 2007).

The subject of one data set is human fibroblasts. The data set can be described thus: Cell protecting effect against UVA on human fibroblasts cultivated in vitro (MDA level, protein content). The format is cell-based. The note with it: UVA 365 nm, + vitamin E, concentration not given. As to the method:
The lipoperoxides are degraded to malonaldialdehyde which will crosslink many biological molecules, such as proteins and nuclein bases (enzyme inhibition or mutagenesis).
Method: To carry out these tests, a defined culture medium (DMEM) containing the fibroblasts was inoculated with foetal calf serum and added to the plant extract (in the defined medium containing 10% foetal serum) 72 hours after inoculation. Incubation was carried out at 37° C./5% CO2.
After incubation for 48 hours at 37° C./5% CO2, the culture medium was replaced by saline solution (physioloigcal NaCl solution) and the fibroblasts were exposed to a dose of UVA (365 nm, 20 J/cm^2; tubes: MAZDA FLUOR TFWN40).
After the exposure to UVA, the MDA level (malonaldialdehyde level) in the supernatant sodium chloride solution was quantitatively determined by reaction with thiobarbituric acid. The protein content was determined by Bradford's method using a Coomassie Brilliant Blue color (Bradford, Analytical Biochem., 72; 248-254; 1976).

A further data set relates to human keratinocytes. Nature of the data set: Cell protecting effect against UVB on human keratinocytes cultivated in vitro (number of keratinocytes, released LDH). Type of data set: cell-based. The note with it: UVB 50 mJ/cm^2, 0.03%.

Method for human keratinocytes: Method: the effect of UVB radiation was investigated in vitro on keratinocytes by determining the release of the cytoplasm enzyme LDH (lactate dehydrogenase). This enzyme serves as a marker for cell damage.
To carry out the test, a defined medium (DMEM) containing fetal calf serum was inoculated with the keratinocytes and added to the plant extract (diluted with saline solution) 72 hours after inoculation.
The keratinocytes were then exposed to a UVB dose (50 mJ/cm^2-tubes: DUKE FL40E).
After incubation for another day ay 37° C./5% CO2. the LDH content in the supernatant phase was determined. The LDH (lactate dehydrogenase) content was spectrophotometrically determined by determining the NADH content during the LDH-catalyzed conversion of pyruvate to lactate by Bonnekoh's method (Bonnekoh B. et al.; Dermatol. Research; 282; 325-329; 1990).
The number of adhering keratinocytes was determined by a DNA assay based on the fluorescence measurement of fluorochromium that binds to cellular DNA using Desaulniers' method (Desaulniers D. et al.; Toxicol. in vitro; 12; 409-422; 1998) and a particle counter. Another test was carried out for comparison using a standard anti-inflammatory, acetyl salicyclic acid.

For vitamin E, the MDA level in the data set on human fibroblasts (20 J/cm^2) is given as 31(4) % versus control. In addition, in the data set with human fibroblasts, the Protein content is 102(11) % versus control.
Consider `CC(=O)Oc1ccccc1C(=O)O` [acetylsalicylic acid], for which the “Content of LDH released” value in the data set with human keratinocytes (UVB alone = 100) is reported as 3(2). Besides, the Number of keratinocytes with human keratinocytes (control without UV = 100) is recorded as 76(5).
